The source of these data is patent US9745295B2, “Thiazole-substituted aminoheteroaryls as spleen tyrosine kinase inhibitors” (Merck Sharp & Dohme Corp., priority 2013, dated 2017).

In the test the target is T1, recombinant human GST-SYK (Homo sapiens, UniProt P43405).
T1 construct: purchased Carna Biosciences 08-176
The test is described as follows: Homogeneous Time-Resolved Fluorescence (HTRF) assay for the recombinant human Syk enzyme. Type of test: biochemical. Particulars: recombinant human GST-SYK 5 pM, ATP 25 μM, read-out: rhSYK IC50. Here is the method:
Homogeneous Time-Resolved Fluorescence (HTRF) Assay for the Recombinant Human Syk Enzyme
A recombinant GST-hSYK fusion protein was used to measure potency of compounds to inhibit human Syk activity. The recombinant human GST-SYK (Carna Biosciences #08-176) (5 pM final concentration) was incubated with various concentrations of the inhibitor diluted in DMSO (0.1% final concentration) for 10 minutes at room temperature in 15 mM Tris-HCl (pH 7.5), 0.01% tween 20, 2 mM DTT in 384 well plate format. To initiate the reaction the biotinylated substrate peptide (250 nM final concentration) that contains the phosphorylation site for Syk was added with magnesium (5 mM final concentration) and ATP (25 μM final concentration). Final volume of the reaction was 10 μL. Phosphorylation of the peptide was allowed to proceed for 45′ at room temperature. To quench the reaction and detect the phosphorylated product, 2 nM of a Europium-anti-phosphotyrosine antibody (Perkin Elmer #AD0161) and 70 nM SA-APC (Perkin-Elmer #CR130-100) were added together in 15 mM Tris pH 7.5, 40 mM EDTA, 0.01% tween 20. Final volume of the quenching solution was 10 μL.
The resulting HTRF signal was measured after 30 minutes on an EnVision (Perkin-Elmer) reader using a time-resolved fluorescence protocol. Table A below lists activities as IC50 values (nM) for representative compounds of the invention.

Molecules are shown by their SMILES. pIC50: −log10 of the molar value.

Turning to `CC1(C)CC(O)(c2ncc(-c3nccc(Nc4cc(C(F)(F)F)ccn4)n3)s2)CCC1C(=O)O` (single isomer, unassigned) [Example 1.14, 4-hydroxy-2,2-(1S,4R or 1R,4S)-dimethyl-4-[5-(4-{[4-(trifluoromethyl)pyridin-2-yl]amino}pyrimidin-2-yl)-1,3-thiazol-2-yl] cyclohexane-carboxylic acid], the pIC50 is 7.92.
With `Cc1cc(Nc2nccc(C(F)F)n2)cc(-c2cnc(C(C)(O)C3CCC(C(=O)O)CC3)s2)n1` (single isomer, unassigned) [Example 4.17, (trans)-4-((R or S)-{1-[5-(4-{[4-(difluoromethyl)pyrimidin-2-yl]amino}-6-methylpyridin-2-yl)-1,3-thiazol-2-yl]-1-hydroxyethyl}cyclo-hexanecarboxylic acid] the figure was 8.86.
In the case of `CCc1cc(Nc2cc(C)cc(-c3cnc(C4(O)CCCc5cc(C(=O)O)ccc54)s3)n2)ncn1` (single isomer, unassigned) [Example 2.11, (R or S)-5-(5-{6-[(6-ethylpyrimidin-4-yl)amino]-4-methylpyridin-2-yl}-1,3-thiazol-2-yl)-5-hydroxy-5,6,7,8-tetrahydronaphthalene-2-carboxylic acid], the negative-log IC50 (pIC50) is 10.19.
With `COc1cc(Nc2nccc(C(F)(F)F)n2)cc(-c2cnc(C3(O)CCC(C(=O)O)C(C)(C)C3)s2)n1` (single isomer, unassigned) [Example 4.18, (1S,4R or 1R,4S)-4-hydroxy-4-[5-(6-methoxy-4-{[4-(trifluoromethyl)pyrimidin-2-yl]amino}pyridin-2-yl)-1,3-thiazol-2-yl]-2,2-dimethylcyclohexane carboxylic acid] the figure was 8.26; with `Cc1cc(Nc2nccc(C(F)(F)F)n2)cc(-c2cnc(C(C)(O)[C@H]3CC[C@H](C(=O)O)CC3)s2)n1` (single isomer, unassigned) [Example 4.8, (trans)-4-((R or S)-1-hydroxy-1-[5-(6-methyl-4-{[4-(trifluoromethyl)pyrimidin-2-yl]amino}pyridin-2-yl)-1,3-thiazol-2-yl]ethyl}cyclohexane carboxylic acid], 9.58; with `Cc1cc(Nc2cc(C(F)(F)F)ccn2)nc(-c2cnc(C3(O)CCC3)s2)n1` [Example 4.5, 1-[5-(4-methyl-6-{[4-(trifluoromethyl)pyridin-2-yl]amino}pyrimidin-2-yl)-1,3-thiazol-2-yl]cyclobutanol], 8.36.
With `Cc1cc(Nc2nccc(C)n2)cc(-c2cnc(C(C)(O)[C@H]3CC[C@H](C(=O)O)CC3)s2)n1` (single isomer, unassigned) [Example 4.11, (trans)-4-((R or S)-1-hydroxy-1-(5-{6-methyl-4-[(4-methylpyrimidin-2-yl)amino]pyridin-2-yl}-1,3-thiazol-2-yl)ethyl]cyclohexane carboxylic acid] the figure was 8.88.
With `Cc1cc(Nc2cncc(C(F)(F)F)n2)cc(-c2cnc(C3(O)CCC(C(=O)O)C(C)(C)C3)s2)c1` (single isomer, unassigned) [Example 2.4, (1S,4R or 1R,4S)-4-hydroxy-2,2-dimethyl-4-[5-(3-methyl-5-{[6-(trifluoromethyl)pyrazin-2-yl]amino}phenyl)-1,3-thiazol-2-yl]cyclohexane-carboxylic acid] the figure was 5.38; with `CCCCOC(=O)[C@H]1CC[C@H](C(C)(O)c2ncc(-c3cc(Nc4nccc(C)n4)cc(C)n3)s2)CC1` (single isomer, unassigned) [Example 4.10, butyl (trans)-4-((R or S)-1-hydroxy-1-(5-{6-methyl-4-[(4-methylpyrimidin-2-yl)amino]pyridin-2-yl}-1,3-thiazol-2-yl)ethyl]cyclohexane carboxylate], 7.03; with `Cc1cc(Nc2nccnn2)cc(-c2cnc(C3(O)CCC3)s2)c1` [Example 3.2, 1-{5-[3-methyl-5-(1,2,4-triazin-3-ylamino)phenyl]-1,3-thiazol-2-yl}cyclobutanol], 6.00.
As to `Cc1cc(Nc2cc(C(F)(F)F)ncn2)nc(-c2cnc(C3(O)CCC(C(=O)O)C(C)(C)C3)s2)c1` (stereo not shown) [Example 1.2, 4-hydroxy-2,2-dimethyl-4-[5-(4-methyl-6-{[6-(trifluoromethyl)pyrimidin-4-yl]amino}pyridin-2-yl)-1,3-thiazol-2-yl]cyclohexane-carboxylic acid], the negative logarithm of the IC50 (pIC50) is 8.93.
The value for `CC(O)(c1ncc(-c2cncc(Nc3cc(C(F)(F)F)ccn3)n2)s1)[C@H]1CC[C@H](C(=O)O)CC1` (single isomer, unassigned) [Example 4.12, (trans)-4-((R or S)-1-hydroxy-1-[5-(6-{[4-(trifluoromethyl)pyridin-2-yl]amino}pyrazin-2-yl)-1,3-thiazol-2-yl]ethyl}cyclohexane carboxylic acid] was 8.74.
As to `Cc1cc(Nc2nccc(C(F)(F)F)n2)cc(-c2cnc(C3(O)CCc4cc(C(=O)O)ccc43)s2)n1` [Example 4.26, (1R, or 1S)-1-hydroxy-1-[5-(6-methyl-4-{[4-(trifluoromethyl)pyrimidin-2-yl]amino}pyridin-2-yl)-1,3-thiazol-2-yl]-2,3-dihydro-1H-indene-5-carboxylic acid], the negative logarithm of the IC50 (pIC50) is 10.02.
For `OC1(c2ncc(-c3cccc(Nc4cnccn4)n3)s2)CCC1` [Example 4.2, 1-{5-[6-(pyrazin-2-ylamino)pyridin-2-yl]-1,3-thiazol-2-yl}cyclobutanol], the pIC50 was 7.45.
For the compound `COC(=O)C1CCC(O)(c2ncc(-c3nc(C)cc(Nc4cc(C(F)(F)F)ccn4)n3)s2)CC1(C)C` (stereo not shown) [Example 1.10, methyl 4-hydroxy-2,2-dimethyl-4-[5-(4-methyl-6-{[4-(trifluoromethyl)pyridin-2-yl]amino}pyrimidin-2-yl)-1,3-thiazol-2-yl]cyclohexane-carboxylate], the pIC50 was 8.05.
Take `COC(=O)c1ccc2c(c1)CCCC2(O)c1ncc(-c2cc(Nc3nccc(C(F)(F)F)n3)cc(C)n2)s1` (single isomer, unassigned) [Example 4.24, (R or S)-methyl 5-hydroxy-5-[5-(6-methyl-4-{[4-(trifluoromethyl)pyrimidin-2-yl]amino}pyridin-2-yl)-1,3-thiazol-2-yl]-5,6,7,8-tetrahydronaphthalene-2-carboxylate]: the pIC50 was 7.75.
The value for `Cc1cc(Nc2nccc(C(F)(F)F)n2)cc(-c2cnc(C3(O)CCC3)s2)n1` [Example 2.1, 1-(5-(6-Methyl-4-((4-(trifluoromethyl)pyrimidin-2-yl)amino)pyridin-2-yl)thiazol-2-yl)cyclobutanol] was 7.58; that for `Cc1cc(Nc2cc(C(F)(F)F)ccn2)nc(-c2cnc(C3(O)CCC(C(=O)O)C(C)(C)C3)s2)n1` (single isomer, unassigned) [Example 1.11, (1S,4R or 1R,4S)-4-hydroxy-2,2-dimethyl-4-[5-(4-methyl-6-{[4-(trifluoromethyl)pyridin-2-yl]amino}pyrimidin-2-yl)-1,3-thiazol-2-yl] cyclohexane-carboxylic acid] was 9.91; that for `CC1(C)CC(O)(c2ncc(-c3cccc(Nc4cc(C(F)(F)F)ncn4)n3)s2)CCC1C(=O)O` (single isomer, unassigned) [Example 3.7, (1S,4R or 1R,4S)-4-hydroxy-2,2-dimethyl-4-[5-(6-{[6-(trifluoromethyl)pyrimidin-4-yl]amino}pyridin-2-yl)-1,3-thiazol-2-yl]cyclohexanecarboxylic acid] was 8.34.
